Test system: α-1,3 glucanase II
Assay: Effects of metallic ions and enzyme inhibitors on α-1,3 glucanase II
Assay type: biochemical, Bacillus circulans BC-8
Conditions: not given
Experimental: (§1) Both α-1,3 glucanase I and II are inhibited by Fe^2+, Pb^2+, and […].
(§2) 0.1 ml of α-1,3 glucanase solution was added to 0.2 ml of 1.3-α-D glucan suspension (6 mg/ml, 50 mM phosphate buffer, pH 7.0), and the mixture was incubated for 16 hours at 40° C. The reaction was terminated by adding ethanol (final concentration was 60%), and amount of the sugar which had become soluble in this condition was determined by the phenol sulfuric acid method.
(§3) Under the above-mentioned reaction conditions, the enzyme activity which produced an amount of sugar soluble in 60% ethanol and corresponding to 100 nmol of glucose was defined as one unit. In practice, α-1,3 glucanase solutions of various concentrations were used for developing the standard curve, and the enzyme activity was read out on it.

| SMILES | inhibition of α-1,3 glucanase II enzymatic activity |
| --- | --- |
| O=[N+]([O-])[O-].[Ag+] [AgNO3] | significant inhibition |
| [Cl][Hg][Cl] [HgCl2] | significant inhibition |
| [Cl][Pb][Cl] [PbCl2] | inhibited |
| O=C(O)c1cc[c]([Hg][Cl])cc1 [pCMB, p-chloromercuribenzoic acid] | significant inhibition |
| [Cl][Fe][Cl] [FeCl2] | inhibited |

Biological target: T1, dextranase (Arthrobacter sp., UniProt P39652)
T1 construct: the mature dextranase protein consisting of 591 amino acid residues; endogenous in cells; host or cells: Arthrobacter sp; CB-8 (FERM BP-995), enzyme purified from the culture
T1 sequence (P39652 50-640): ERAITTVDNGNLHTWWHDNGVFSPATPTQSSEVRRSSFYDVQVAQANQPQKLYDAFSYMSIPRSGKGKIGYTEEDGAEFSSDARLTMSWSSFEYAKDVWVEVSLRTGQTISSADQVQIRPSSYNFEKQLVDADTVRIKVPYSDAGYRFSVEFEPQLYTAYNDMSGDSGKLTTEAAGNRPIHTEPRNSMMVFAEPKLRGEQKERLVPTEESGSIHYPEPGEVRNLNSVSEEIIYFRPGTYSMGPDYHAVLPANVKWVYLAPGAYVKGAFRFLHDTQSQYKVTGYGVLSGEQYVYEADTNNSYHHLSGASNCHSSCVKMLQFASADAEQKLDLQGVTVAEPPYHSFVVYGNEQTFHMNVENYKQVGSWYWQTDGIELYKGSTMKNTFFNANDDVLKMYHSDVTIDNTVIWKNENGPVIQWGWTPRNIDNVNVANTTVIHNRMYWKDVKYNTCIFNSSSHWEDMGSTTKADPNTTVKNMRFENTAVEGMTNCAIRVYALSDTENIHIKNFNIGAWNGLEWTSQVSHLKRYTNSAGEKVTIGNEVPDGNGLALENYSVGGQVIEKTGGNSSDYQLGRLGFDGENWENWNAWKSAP
Assay: Effects of metallic ions and enzyme inhibitors on dextranase activity
Assay type: biochemical, Arthrobacter sp. CB-8
Conditions: not given
Experimental: 0.1 ml of the enzyme solution is added to 0.9 ml of 50 mM phosphate buffer, pH 6.5, containing 0.555% dextran (molecular weight: 10,000~20,000),and the mixture is incubated at 37° C. for 30 minutes. After the reaction is stopped, the amount of reducing sugar produced is measured by Somogyi-Nelson method. The enzymatic activity which increases a reducing power equivalent to 1 μ mole of glucose per 1 minute was defined as one unit.

| SMILES | Relative activity (%) of dextranase [%] |
| --- | --- |
| [Cl-].[Na+] [NaCl] | 100 |

Same assay, conditions: metallic ion or inhibitor 0.1 mM; none = 100

| SMILES | Relative activity (%) of dextranase [%] |
| --- | --- |
| O=[N+]([O-])[O-].[Ag+] [AgNO3] | 0 |
| O=S(=O)([O-])[O-].[Cu+2] [CuSO4] | 7 |
| [Cl][Hg][Cl] [HgCl2] | 0 |

Same assay, conditions: metallic ion or inhibitor 1 mM; none = 100

| SMILES | Relative activity (%) of dextranase [%] |
| --- | --- |
| [Cl][Fe]([Cl])[Cl] [FeCl3] | 104 |
| [Cl][Pb][Cl] [PbCl2] | 103 |
| [Cl-].[Cl-].[Zn+2] [ZnCl2] | 77 |
| O=C(O)c1cc[c]([Hg][Cl])cc1 [pCMB, p-chloromercuribenzoic acid] | 29 |
| [Cl][Mn][Cl] [MnCl2] | 77 |
| [Ca+2].[Cl-].[Cl-] [CaCl2] | 113 |
| O=S(=O)([O-])[O-].[Mg+2] [MgSO4] | 113 |
| [Cl][Fe][Cl] [FeCl2] | 115 |

Same assay, conditions: metallic ion or inhibitor 1 mM; none = 100; read-out: Relative activity (%) of dextranase

| SMILES | activity at 1000 µM [%] |
| --- | --- |
| c1cnc2c(c1)ccc1cccnc12 [o-Phenanthroline] | 100 |

Same assay, conditions: metallic ion or inhibitor 10 mM; none = 100

| SMILES | Relative activity (%) of dextranase [%] |
| --- | --- |
| [Cl-].[K+] [KCl] | 113 |

Same assay, conditions: read-out: Relative activity (%) of dextranase

| SMILES | activity at 1000 µM [%] |
| --- | --- |
| O=C(O)CN(CCN(CC(=O)O)CC(=O)O)CC(=O)O [EDTA] | 122 |

Same assay, conditions: summary of Table 6

| SMILES | inhibition of dextranase (in words) |
| --- | --- |
| O=[N+]([O-])[O-].[Ag+] [AgNO3] | significantly inhibited |
| O=S(=O)([O-])[O-].[Cu+2] [CuSO4] | significantly inhibited |
| [Cl][Hg][Cl] [HgCl2] | significantly inhibited |
| O=C(O)c1cc[c]([Hg][Cl])cc1 [pCMB, p-chloromercuribenzoic acid] | inhibited strongly |

Test system: α-1,3 glucanase I
Assay: Effects of metallic ions and enzyme inhibitors on α-1,3 glucanase I
Assay type: biochemical, Bacillus circulans BC-8
Conditions: not given
Experimental: as §1, §2, §3

| SMILES | inhibition of α-1,3 glucanase I enzymatic activity |
| --- | --- |
| O=[N+]([O-])[O-].[Ag+] [AgNO3] | significant inhibition |
| [Cl][Hg][Cl] [HgCl2] | significant inhibition |
| [Cl][Pb][Cl] [PbCl2] | inhibited |
| O=C(O)c1cc[c]([Hg][Cl])cc1 [pCMB, p-chloromercuribenzoic acid] | significant inhibition |
| [Cl][Fe][Cl] [FeCl2] | inhibited |

From US5306639A, “DNA encoding glucanase enzymes” (priority 1985, dated 1994)
